Target: T1, USP25 (USP25-His6, Boston Biochem E-546) (Homo sapiens, UniProt Q9UHP3)
T1 construct: His6; purchased Boston Biochem E-546
T1 sequence (Q9UHP3 1-1055): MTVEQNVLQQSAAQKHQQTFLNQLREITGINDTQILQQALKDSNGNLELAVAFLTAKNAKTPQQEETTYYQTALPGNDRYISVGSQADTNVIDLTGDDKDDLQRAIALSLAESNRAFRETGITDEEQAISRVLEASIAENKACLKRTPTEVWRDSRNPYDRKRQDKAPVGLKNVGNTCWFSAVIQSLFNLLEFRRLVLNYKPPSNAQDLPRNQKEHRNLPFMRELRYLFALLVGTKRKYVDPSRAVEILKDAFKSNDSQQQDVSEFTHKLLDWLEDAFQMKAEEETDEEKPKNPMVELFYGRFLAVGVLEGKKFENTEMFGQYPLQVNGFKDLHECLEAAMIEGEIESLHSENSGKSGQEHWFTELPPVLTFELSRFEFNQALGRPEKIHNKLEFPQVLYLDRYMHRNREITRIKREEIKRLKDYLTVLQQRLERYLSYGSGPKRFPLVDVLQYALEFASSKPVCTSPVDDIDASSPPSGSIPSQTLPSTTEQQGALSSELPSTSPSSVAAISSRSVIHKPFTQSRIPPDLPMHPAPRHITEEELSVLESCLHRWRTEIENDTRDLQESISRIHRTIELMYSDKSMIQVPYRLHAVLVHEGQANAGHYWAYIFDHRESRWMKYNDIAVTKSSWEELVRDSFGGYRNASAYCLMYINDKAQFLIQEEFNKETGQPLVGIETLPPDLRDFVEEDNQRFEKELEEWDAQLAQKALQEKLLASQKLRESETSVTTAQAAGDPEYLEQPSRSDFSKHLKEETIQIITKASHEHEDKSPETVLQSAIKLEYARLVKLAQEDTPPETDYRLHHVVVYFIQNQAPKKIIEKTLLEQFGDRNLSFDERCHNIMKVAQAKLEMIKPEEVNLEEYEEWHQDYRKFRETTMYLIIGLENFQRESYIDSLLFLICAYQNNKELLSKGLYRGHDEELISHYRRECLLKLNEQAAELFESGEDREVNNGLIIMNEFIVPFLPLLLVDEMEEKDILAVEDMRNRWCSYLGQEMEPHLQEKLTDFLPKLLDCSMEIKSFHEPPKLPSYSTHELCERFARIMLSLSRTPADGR
Assay: Ubiquitin-Rhodamine 110 Assay for USP25 Activity, Example A-2
Assay type: biochemical
Conditions: Ubiquitin-Rhodamine 110 assay, Example A-2; read-out: USP25 A-2 IC50 range
In short: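 75 pM USP25-His6 was preincubated 30 min with compound (10-point 3-fold series, 25 μM–1.3 nM) in pH 8.0 Tris buffer with BME, BGG and Triton X-100. Then 25 nM Ub-Rh110 (<<Km) was added for 45 min at room temperature, stopped with citric acid, fluorescence read at 485/535 nm, IC50 by 4-parameter fit.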

SMILES	IC50 [nM]
O=C(N[C@H]1COc2cc(N3CCNCC3)ccc2C1)c1cnc2c(ccn2C(F)F)c1 [Example 38, (R)-1-(difluoromethyl)-N-(7-(piperazin-1-yl)chroman-3-yl)-1H-pyrrolo[2,3-b]pyridine-5-carboxamide]	> 2000
Cc1ccc2c(N)c(C(=O)N[C@H]3CCc4nc(N5CC6CCC(C5)N6)ccc4C3)sc2n1 [Example 23-12, 3-amino-N-[(6S)-2-{3,8-diazabicyclo[3.2.1]octan-3-yl}-5,6,7,8-tetrahydroquinolin-6-yl]-6-methylthieno[2,3-b]pyridine-2-carboxamide]	200 to 2000
O=C(N[C@H]1COc2cc(N3CCNCC3)ccc2C1)c1cnc2c(ccn2Cc2ccccc2)c1 [Example 59, (R)-1-benzyl-N-(7-(piperazin-1-yl)chroman-3-yl)-1H-pyrrolo[2,3-b]pyridine-5-carboxamide]	1 to 50
Cc1ccc2c(N)c(C(=O)N[C@H]3CCc4nc(N5C[C@@H](N)[C@H](C(F)F)C5)ccc4C3)sc2n1 [Example 25, 3-Amino-N-[(6S)-2-[(3S,4R)-3-amino-4-(difluoromethyl)pyrrolidin-1-yl]-5,6,7,8-tetrahydroquinolin-6-yl]-6-methylthieno[2,3-b]pyridine-2-carboxamide]	200 to 2000
CO[C@H]1CN(c2cc(F)c3c(c2F)OC[C@H](NC(=O)c2sc4nc(C)ccc4c2N)C3)C[C@@H]1N [Example 87, 3-amino-N-((R)-7-((3S,4S)-3-amino-4-methoxypyrrolidin-1-yl)-5,8-difluorochroman-3-yl)-6-methylthieno[2,3-b]pyridine-2-carboxamide]	200 to 2000
Cc1nc2sc(C(=O)N[C@H]3COc4cc(N5CCNCC5)ncc4C3)c(N)c2cc1F [Example 72, (R)-3-amino-5-fluoro-6-methyl-N-(7-(piperazin-1-yl)-3,4-dihydro-2H-pyrano[3,2-c]pyridin-3-yl)thieno[2,3-b]pyridine-2-carboxamide]	200 to 2000
CCn1ccc2cc(C(=O)N[C@H]3COc4c(F)c([C@H]5CCNC[C@H]5O)cc(F)c4C3)nnc21 [Example 85, N-((R)-5,8-difluoro-7-((3S,4R)-3-hydroxypiperidin-4-yl)chroman-3-yl)-7-ethyl-7H-pyrrolo[2,3-c]pyridazine-3-carboxamide]	> 2000
CCc1cnc2sc(C(=O)N[C@@H]3COc4cc(N5CCNCC5)ccc4C3)c(N)c2n1 [Example 37, (S)-7-amino-2-ethyl-N-(7-(piperazin-1-yl)chroman-3-yl)thieno[2,3-b]pyrazine-6-carboxamide]	> 2000
Cc1cnc2c(N)c(C(=O)N[C@H]3COc4cc(N5CC6CCC(C5)N6)c(F)cc4C3)sc2n1 (single isomer, unassigned) [Example 40]	50 to 200
O=C(N[C@H]1COc2c(F)c(N3CC4CCC(C3)N4)cc(F)c2C1)c1cnc2c(c1)[C@H]1C[C@H]1CN2 [Example 90, (1aR,7bS)-N-((3R)-7-(3,8-diazabicyclo[3.2.1]octan-3-yl)-5,8-difluorochroman-3-yl)-1a,2,3,7b-tetrahydro-1H-cyclopropa[c][1,8]naphthyridine-6-carboxamide]	200 to 2000
Cc1ccc2c(N)c(C(=O)N[C@H]3COc4cc([C@@H]5CCNC[C@H]5F)ccc4C3)sc2n1 [Example 81, 3-amino-N-((R)-7-((3S,4S)-3-fluoropiperidin-4-yl)chroman-3-yl)-6-methylthieno[2,3-b]pyridine-2-carboxamide]	50 to 200
Cc1ccc2c(N)c(C(=O)N[C@H]3CCc4nc(N5CCNCC5)cc(F)c4C3)sc2n1 [Example 23-17, 3-amino-N-[(6S)-4-fluoro-2-(piperazin-1-yl)-5,6,7,8-tetrahydroquinolin-6-yl]-6-methylthieno[2,3-b]pyridine-2-carboxamide]	200 to 2000
O=C(N[C@H]1COc2c(F)c(N3CC4CCC(C3)N4)cc(F)c2C1)c1cnc2c(c1)[C@@H]1C[C@@H]1CN2 [Example 89, (1aS, 7bR)-N-((3R)-7-(3 8-diazabicyclo[3.2.1]octan-3-yl)-5,8-difluorochroman-3-yl)-1a,2,3,7b-tetrahydro-1H-cyclopropa[c][1,8]naphthyridine-6-carboxamide]	50 to 200
CO[C@@H]1CN(c2ccc3c(c2F)OC[C@H](NC(=O)c2sc4nc(C)ccc4c2N)C3)C[C@H]1N [Example 91, 3-amino-N-[(3R )-7-[(3R,4R)-3-amino-4-methoxypyrrolidin-1-yl]-8-fluoro-3,4-dihydro-2H-1-benzopyran-3-yl]-6-methylthieno[2,3-b]pyridine-2-carboxamide]	200 to 2000
Cc1cc(C)c2c(N)c(C(=O)N[C@H]3CCc4nc(N5CCNCC5)ccc4C3)sc2n1 [Example 23-14, 3-amino-4,6-dimethyl-N-[(6S)-2-(piperazin-1-yl)-5,6,7,8-tetrahydroquinolin-6-yl]thieno[2,3-b]pyridine-2-carboxamide]	200 to 2000
Cc1ccc2c(N)c(C(=O)N[C@H]3COc4cc([C@@H]5CCNC[C@H]5O)ccc4C3)sc2n1 [Example 65, 3-amino-N-((R)-7-((3S,4S)-3-hydroxypiperidin-4-yl)chroman-3-yl)-6-methylthieno[2,3-b]pyridine-2-carboxamide]	50 to 200
O=C(N[C@H]1COc2cc(N3CCNCC3)ccc2C1)c1cnc2c(c1)CC[C@H]2O [Example 57, (R)-7-hydroxy-N-((R)-7-(piperazin-1-yl)chroman-3-yl)-6,7-dihydro-5H-cyclopenta[b]pyridine-3-carboxamide]	> 2000
Cc1nc2sc(C(=O)N[C@H]3COc4cc(N5CCNCC5)c(F)c(F)c4C3)c(N)c2s1 [Example 66, (R)-6-amino-N-(5,6-difluoro-7-(piperazin-1-yl)chroman-3-yl)-2-methylthieno[2,3-d]thiazole-5-carboxamide]	200 to 2000
Cc1ccc2c(N)c(C(=O)N[C@H]3COc4cc([C@@H]5CCNCC5(F)F)ccc4C3)sc2n1 [Example 70, 3-amino-N-((R)-7-((S)-3,3-difluoropiperidin-4-yl)chroman-3-yl)-6-methylthieno[2,3-b]pyridine-2-carboxamide]	1 to 50
O=C(N[C@H]1COc2cc(N3CC4CCC(C3)N4)ccc2C1)c1cnc2c(c1)CCCO2 [Example 51, N-((3R)-7-(3,8-diazabicyclo[3.2.1]octan-3-yl)chroman-3-yl)-3,4-dihydro-2H-pyrano[2,3-b]pyridine-6-carboxamide]	> 2000
Cc1ccc2c(N)c(C(=O)N[C@H]3COc4cc(N5C[C@@H]6CCNC[C@@H]65)ccc4C3)sc2n1 (single isomer, unassigned) [Example 33-3]	50 to 200
Cc1ccc2c(N)c(C(=O)N[C@H]3COc4cc(C5(C#N)CCS(=O)(=O)CC5)ccc4C3)sc2n1 [Example 34, 3-amino-N-[(3R)-7-(4-cyano-1,1-dioxo-1λ6-thian-4-yl)-3,4-dihydro-2H-1-benzopyran-3-yl]-6-methylthieno[2,3-b]pyridine-2-carboxamide]	1 to 50
Cc1ccc2c(N)c(C(=O)N[C@H]3Cc4ccc(N5CCNCC5)nc4C4(CC4)C3)sc2n1 (single isomer, unassigned) [Example 31-4, 3-amino-6-methyl-N-[(6′R)-2′-(piperazin-1-yl)-6′,7′-dihydro-5′H-spiro[cyclopropane-1,8′-quinoline]-6′-yl]thieno[2,3-b]pyridine-2-carboxamide]	200 to 2000

Source: patent US11524966B1 (Valo Early Discovery, Inc., priority 2017, dated 2022)
